Laboratory results: patent US9686984B2, “Macrocyclic picolinamides as fungicides” (DOW AGROSCIENCES LLC, priority 2014, dated 2017)
Where two headings read alike, the source gives them in different places.

How the values were obtained:
Format in all cases: in vivo
Leptosphaeria nodorum = assay: Wheat Glume Blotch (LEPTNO) disease control; settings: 100 ppm, 1 Day Protectant
Procedure: Technical grades of materials were dissolved in acetone, which were then mixed with nine volumes of water containing 110 ppm Triton X-100. The fungicide solutions were applied onto wheat seedlings using an automated booth sprayer to run-off. All sprayed plants were allowed to air dry prior to further handling. All fungicides were evaluated using the aforementioned method for their activity vs. all target diseases, unless stated otherwise. Wheat leaf blotch and brown rust activity were also evaluated using track spray applications, in which case the fungicides were formulated as EC formulations, containing 0.1% Trycol 5941 in the spray solutions. Wheat plants (variety Yuma) were grown from seed in a greenhouse in 50% mineral soil/50% soil-less Metro mix until the first leaf was fully emerged, with 7-10 seedlings per pot. These plants were inoculated with an aqueous spore suspension of Septoria tritici either prior to or after fungicide treatments. After inoculation the plants were kept in 100% relative humidity (one day in a dark dew chamber followed by two to three days in a lighted dew chamber at 20° C.) to permit spores to germinate and infect the leaf. The plants were then transferred to a greenhouse set at 20° C. for disease to develop. When disease symptoms were fully expressed on the 1st leaves of untreated plants, infection levels were assessed on a scale of 0 to 100 percent disease severity. Percent disease control was calculated using the ratio of disease severity on treated plants relative to untreated plants. Example C: Evaluation of Fungicidal Activity: Wheat Glume Blotch (Leptosphaeria nodorum; Bayer code […]) Wheat plants (variety Yuma) were grown from seed in a greenhouse in 50% mineral soil/50% soil-less Metro mix until the first leaf was fully emerged, with 7-10 seedlings per pot. These plants were inoculated with an aqueous spore suspension of Leptosphaeria nodorum 24 hr after fungicide treatments. […]

Cercospora beticola = assay: Leaf Spot of Sugar Beets (CERCBE) disease control; settings: 100 ppm, 1 Day Protectant
Procedure: Technical grades of materials were dissolved in acetone, which were then mixed with nine volumes of water containing 110 ppm Triton X-100. The fungicide solutions were applied onto wheat seedlings using an automated booth sprayer to run-off. All sprayed plants were allowed to air dry prior to further handling. All fungicides were evaluated using the aforementioned method for their activity vs. all target diseases, unless stated otherwise. Wheat leaf blotch and brown rust activity were also evaluated using track spray applications, in which case the fungicides were formulated as EC formulations, containing 0.1% Trycol 5941 in the spray solutions. Wheat plants (variety Yuma) were grown from seed in a greenhouse in 50% mineral soil/50% soil-less Metro mix until the first leaf was fully emerged, with 7-10 seedlings per pot. These plants were inoculated with an aqueous spore suspension of Septoria tritici either prior to or after fungicide treatments. After inoculation the plants were kept in 100% relative humidity (one day in a dark dew chamber followed by two to three days in a lighted dew chamber at 20° C.) to permit spores to germinate and infect the leaf. The plants were then transferred to a greenhouse set at 20° C. for disease to develop. When disease symptoms were fully expressed on the 1st leaves of untreated plants, infection levels were assessed on a scale of 0 to 100 percent disease severity. Percent disease control was calculated using the ratio of disease severity on treated plants relative to untreated plants. Example G: Evaluation of Fungicidal Activity: Leaf Spot of Sugar Beets (Cercospora Beticola; Bayer Code CERCBE) Sugar beet plants (variety HH88) were grown in soil-less Metro mix and trimmed regularly to maintain a uniform plant size prior to test. Plants were inoculated with a spore suspension 24 hr after fungicide treatments. Inoculated plants were kept in a dew chamber at 22° C. for 48 hr then incubated in a greenhouse set at 24° C. under a clear plastic hood with bottom ventilation until disease symptoms were fully expressed. […]

Puccinia triticina = assay: Wheat Brown Rust (PUCCRT) disease control on wheat seedlings; settings: for pest or weed control at 100 µg/mL: High Volume (100 ppm); for pest or weed control at 121.5 g/ha: Low Volume (121.5 g/H)
Summary of the method: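 Yuma wheat seedlings at the first-leaf stage sprayed to run-off (acetone solution in nine volumes of water, 110 ppm Triton X-100) or track-sprayed as EC with 0.1% Trycol 5941. Inoculation with P. triticina before or after treatment, then overnight dark dew at 22° C., 100% RH, then a 24° C. greenhouse. Percent control from severity vs untreated.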

Magnaporthe grisea = settings: 100 ppm, 1 Day Protectant
[1] = 24 h, 1 Day Protectant, read-out: PUCCRT disease control, 1 DP
[2] = 72 h, 3 Day Curative, read-out: PUCCRT disease control, 3 DC

CCC[C@H]1OCC[C@H](NC(=O)c2nccc(OC)c2OCOC(C)=O)C(=O)O[C@@H](C)[C@@H]1Cc1ccccc1 [Compound 17]
LEPTNO disease control, 1DP (Leptosphaeria nodorum): A (>70)
CERCBE disease control, 1DP (Cercospora beticola): A (>70)
pest or weed control at 100 µg/mL (Puccinia triticina; [1]): > 70%
pest or weed control at 121.5 g/ha (Puccinia triticina; [1]): > 70%
pest or weed control at 100 µg/mL (Puccinia triticina; [2]): > 70%
pest or weed control at 121.5 g/ha (Puccinia triticina; [2]): > 70%
PYRIOR disease control, 1DP (Magnaporthe grisea): A (>70)

CCCC[C@H]1OCC[C@H](NC(=O)c2nccc(OC)c2OC(C)=O)C(=O)O[C@@H](C)[C@@H]1Cc1ccccc1 [Compound 2]
LEPTNO disease control, 1DP (Leptosphaeria nodorum): A (>70)
CERCBE disease control, 1DP (Cercospora beticola): A (>70)
pest or weed control at 121.5 g/ha (Puccinia triticina; [1]): > 70%
pest or weed control at 121.5 g/ha (Puccinia triticina; [2]): > 70%
PYRIOR disease control, 1DP (Magnaporthe grisea): A (>70)

COc1ccnc(C(=O)N[C@H]2CCO[C@H](Cc3ccccc3)[C@@H](Cc3ccccc3)[C@H](C)OC2=O)c1OC(C)=O [Compound 3]
LEPTNO disease control, 1DP (Leptosphaeria nodorum): A (>70)
CERCBE disease control, 1DP (Cercospora beticola): A (>70)
pest or weed control at 121.5 g/ha (Puccinia triticina; [1]): > 70%
pest or weed control at 121.5 g/ha (Puccinia triticina; [2]): > 70%
PYRIOR disease control, 1DP (Magnaporthe grisea): A (>70)
